Assay results taken from patent US20230021483A1, “[…] […] METHOD AND CLASSIFICATION OF PHARMACEUTICAL COMPONENTS BY USING TRANSCRIPTOMES” (National Institutes of Biomedical Innovation, Health and …, priority 2016, published 2023).

System: preferentially upregulated genes in LV, SP, LN
Experiment: Z-score-based differential gene expression analysis (adjuvant group- or adjuvant-associated genes, 40 module mapping, TargetMine annotation)
Format: in vivo, C57BL/6 mice
Conditions: ID, LV
Source text: Each sample's FC value was converted into a z-score on a gene basis by using the entire data set for each organ. The Z-score of the triplicates of interest were summed for each adjuvant. For example, the three sample z-score in the LV sample following cdiGMP administration was summed on a gene-by-gene basis, after which the summed scores of >3 genes were selected as relatively preferentially expressed genes in the LV after cdiGMP administration. The following threshold was applied for selections. […] G2^LV: ALM_IP(z>1) & bCD(z>1) & ENDCN(z>1) & FCA(z>1). […] G4^LV: MALP2s(z>3). […] G2^SP: ENDCN_x2+ENDCN_x3(z>2) & ALM_IP(z>3) & bCD(z>3). […] G4^SP: ADX_ID_x2+ADX_ID_x3(z>2) & ADX_IP(z>3) & MALP2s(z>3). […] G2^LN: bCD(z>3) & FCA(z>3). […] G5^LN: K3(z>1.5) & K3SPG_x1+K3SPG_x2(z>1) & D35_x1+D35_x3(z>1). G6^LN: AddaVax(z>3).

Poly_IC
Adar 1425405_a_at (Group G1, Modules 20) (sample x1): 3.45 | Adar 1434268_at (Group G1, Modules 20) (sample x1): 2.82 | Ddx58 1436562_at (Group G1, Modules 20) (sample x1): 2.92 | Ddx58 1456890_at (Group G1, Modules 20) (sample x1): 3.02 | Eif2ak2 1422005_at (Group G1, Modules 20) (sample x1): 2.89 | G3bp2 1421323_a_at (Group G1, Modules 20) (sample x1): 2.83 | Gm9706///Isg15 1431591_s_at (Group G1, Modules 20) (sample x1): 3.28 | H2-T10///H2-T22///H2-T9 1449875_s_at (Group G1, Modules 20) (sample x1): 2.89 | Ifih1 1426276_at (Group G1, Modules 20) (sample x1): 3.06 | Ifit1 1450783_at (Group G1, Modules 20) (sample x1): 2.54 | Ifit3 1449025_at (Group G1, Modules 20) (sample x1): 3.24 | Irf7 1417244_a_at (Group G1, Modules 20) (sample x1): 3.53 | Irgm1 1418825_at (Group G1, Modules 20) (sample x1): 2.78 | Mndal 1426906_at (Group G1, Modules 20) (sample x1): 3.14 | Pml 1448757_at (Group G1, Modules 20) (sample x1): 3.58 | Pml 1456103_at (Group G1, Modules 20) (sample x1): 3.26 | Rnf213 1455500_at (Group G1, Modules 20) (sample x1): 2.64 | Rsad2 1436058_at (Group G1, Modules 20) (sample x1): 3 | Shisa5 1423986_a_at (Group G1, Modules 20) (sample x1): 2.5 | Shisa5 1437503_a_at (Group G1, Modules 20) (sample x1): 2.49 | Stat1 1450033_a_at (Group G1, Modules 20) (sample x1): 2.73 | Stat1 1450034_at (Group G1, Modules 20) (sample x1): 2.89 | Tdrd7 1426716_at (Group G1, Modules 20) (sample x1): 3.28 | Tor1aip2 1418115_s_at (Group G1, Modules 20) (sample x1): 2.38 | Tor1aip2 1418116_at (Group G1, Modules 20) (sample x1): 2.73 | Tor1aip2 1435526_at (Group G1, Modules 20) (sample x1): 2.88 | Trim12a 1437432_a_at (Group G1, Modules 20) (sample x1): 3.39 | Uba7 1426970_a_at (Group G1, Modules 20) (sample x1): 3 | Adar 1425405_a_at (Group G1, Modules 20) (sample x2): 2.75 | Adar 1434268_at (Group G1, Modules 20) (sample x2): 2.17 | Ddx58 1436562_at (Group G1, Modules 20) (sample x2): 2.82 | Ddx58 1456890_at (Group G1, Modules 20) (sample x2): 2.77 | Eif2ak2 1422005_at (Group G1, Modules 20) (sample x2): 2.87 | G3bp2 1421323_a_at (Group G1, Modules 20) (sample x2): 2.85 | Gm9706///Isg15 1431591_s_at (Group G1, Modules 20) (sample x2): 3.62 | H2-T10///H2-T22///H2-T9 1449875_s_at (Group G1, Modules 20) (sample x2): 3.28 | Ifih1 1426276_at (Group G1, Modules 20) (sample x2): 3.34 | Ifit1 1450783_at (Group G1, Modules 20) (sample x2): 2.35 | Ifit3 1449025_at (Group G1, Modules 20) (sample x2): 3.25 | Irf7 1417244_a_at (Group G1, Modules 20) (sample x2): 3.38 | Irgm1 1418825_at (Group G1, Modules 20) (sample x2): 2.84 | Mndal 1426906_at (Group G1, Modules 20) (sample x2): 2.4 | Pml 1448757_at (Group G1, Modules 20) (sample x2): 3.3 | Pml 1456103_at (Group G1, Modules 20) (sample x2): 2.5 | Rnf213 1455500_at (Group G1, Modules 20) (sample x2): 3.01 | Rsad2 1436058_at (Group G1, Modules 20) (sample x2): 3.3 | Shisa5 1423986_a_at (Group G1, Modules 20) (sample x2): 2.99 | Shisa5 1437503_a_at (Group G1, Modules 20) (sample x2): 2.66 | Stat1 1450033_a_at (Group G1, Modules 20) (sample x2): 2.67 | Stat1 1450034_at (Group G1, Modules 20) (sample x2): 3.04 | Tdrd7 1426716_at (Group G1, Modules 20) (sample x2): 3.24 | Tor1aip2 1418115_s_at (Group G1, Modules 20) (sample x2): 2.68 | Tor1aip2 1418116_at (Group G1, Modules 20) (sample x2): 2.94 | Tor1aip2 1435526_at (Group G1, Modules 20) (sample x2): 2.62 | Trim12a 1437432_a_at (Group G1, Modules 20) (sample x2): 3.59 | Uba7 1426970_a_at (Group G1, Modules 20) (sample x2): 3.13 | Adar 1425405_a_at (Group G1, Modules 20) (sample x3): 1.58 | Adar 1434268_at (Group G1, Modules 20) (sample x3): 1.28 | Ddx58 1436562_at (Group G1, Modules 20) (sample x3): 1.64 | Ddx58 1456890_at (Group G1, Modules 20) (sample x3): 1.87 | Eif2ak2 1422005_at (Group G1, Modules 20) (sample x3): 1.83 | G3bp2 1421323_a_at (Group G1, Modules 20) (sample x3): 1.31 | Gm9706///Isg15 1431591_s_at (Group G1, Modules 20) (sample x3): 2.13 | H2-T10///H2-T22///H2-T9 1449875_s_at (Group G1, Modules 20) (sample x3): 2.21 | Ifih1 1426276_at (Group G1, Modules 20) (sample x3): 2.12 | Ifit1 1450783_at (Group G1, Modules 20) (sample x3): 1.28 | Ifit3 1449025_at (Group G1, Modules 20) (sample x3): 1.95 | Irf7 1417244_a_at (Group G1, Modules 20) (sample x3): 2.38 | Irgm1 1418825_at (Group G1, Modules 20) (sample x3): 1.84 | Mndal 1426906_at (Group G1, Modules 20) (sample x3): 2.37 | Pml 1448757_at (Group G1, Modules 20) (sample x3): 2 | Pml 1456103_at (Group G1, Modules 20) (sample x3): 2.12 | Rnf213 1455500_at (Group G1, Modules 20) (sample x3): 1.47 | Rsad2 1436058_at (Group G1, Modules 20) (sample x3): 1.97 | Shisa5 1423986_a_at (Group G1, Modules 20) (sample x3): 1.61 | Shisa5 1437503_a_at (Group G1, Modules 20) (sample x3): 1.52 | Stat1 1450033_a_at (Group G1, Modules 20) (sample x3): 1.92 | Stat1 1450034_at (Group G1, Modules 20) (sample x3): 1.94 | Tdrd7 1426716_at (Group G1, Modules 20) (sample x3): 1.44 | Tor1aip2 1418115_s_at (Group G1, Modules 20) (sample x3): 1.13 | Tor1aip2 1418116_at (Group G1, Modules 20) (sample x3): 0.96 | Tor1aip2 1435526_at (Group G1, Modules 20) (sample x3): 1.58 | Trim12a 1437432_a_at (Group G1, Modules 20) (sample x3): 2.9 | Uba7 1426970_a_at (Group G1, Modules 20) (sample x3): 1.71
